According to ChEMBL document CHEMBL5390260 (J Med Chem, 2023):
The source made the active and inactive calls. The calls are words filed in the database; no cut-off is given here.

Columns and labels:
Carbonic anhydrase 12 = Carbonic anhydrase 12 (Homo sapiens, UniProt O43570); test: Binding affinity to human recombinant CA12 assessed as inhibition constant incubated for 15 mins by phenol red dye based stopped flow CO2 hydration assay
Carbonic anhydrase 9 = Carbonic anhydrase 9 (Homo sapiens, UniProt Q16790)
SW-620 [1] = test: Antiproliferative activity against human SW620 cells assessed as inhibition of cell growth measured after 48 to 72 hrs in presence of 5-fluorouracil by XTT assay; format: functional, cell-based
SW480 [2] = test: Antiproliferative activity against human SW480 cells assessed as inhibition of cell growth measured after 48 to 72 hrs in presence of 5-fluorouracil by XTT assay; format: functional, cell-based
HCT-116 [3] = test: Antiproliferative activity against human HCT-116 cells assessed as inhibition of cell growth measured after 48 to 72 hrs in presence of 5-fluorouracil by MTT assay; format: functional, cell-based
NCI/ADR-RES = test: Antiproliferative activity against human NCI/ADR-RES cells assessed as inhibition of cell growth measured after 48 hrs by sulforhodamine B assay; format: functional, cell-based
HT-29 [4] = test: Cytotoxicity against doxorubicin-sensitive human HT-29 cell assessed as reduction in cell viability at 1 to 100 nM incubated for 72 hrs by WST-1 assay; format: functional; conditions: dose 1-100 nM
HT-29 [5] = test: Cytotoxicity against doxorubicin-resistant human HT-29 cell assessed as reduction in cell viability at 1 to 100 nM incubated for 72 hrs by WST-1 assay; format: functional; conditions: dose 1-100 nM
[6] = Cytotoxicity against MDCK-P-gp cells assessed as reduction in cell viability at 1 to 100 nM incubated for 72 hrs by WST-1 assay; format: toxicity, cell-based, Canis lupus familiaris; conditions: dog, 0.1 µM, dose 1-100 nM
MDCK [7] = test: Cytotoxicity against MDCK cells assessed as reduction in cell viability at 1 to 100 nM incubated for 72 hrs by WST-1 assay; format: toxicity, cell-based, Canis lupus familiaris; conditions: dog, 0.1 µM, dose 1-100 nM
Carbonic anhydrase 2 = Carbonic anhydrase 2 (Homo sapiens, UniProt P00918); test: Binding affinity to human recombinant CA2 assessed as inhibition constant incubated for 15 mins by phenol red dye based stopped flow CO2 hydration assay
OVCAR-8 = test: Antiproliferative activity against human OVCAR-8 cells assessed as inhibition of cell growth measured after 48 hrs by sulforhodamine B assay; format: functional, cell-based; conditions: OVCAR-8, 48 h
Tubulin (Homo sapiens) = Tubulin (Homo sapiens) (UniProt P68371+Q9H4B7+P0DPH7+P68366+Q13509+Q71U36+P04350+Q3ZCM7+P07437+P68363+Q9BQE3+Q6PEY2+Q13885+Q9BVA1+Q9BUF5); test: Inhibition of tubulin polymerization (unknown origin) at 20 uM preincubated for 15 mins followed by GTP addition by spectrophotometric analysis; format: protein-complex assay
MCF7 = test: Antiproliferative activity against human MCF7 cells assessed as inhibition of cell growth measured after 48 hrs by sulforhodamine B assay; format: functional, cell-based; conditions: MCF7, 48 h
HCT-116 [8] = test: Induction of apoptosis in human HCT-116 cells assessed as increase in cleaved caspase-3 level upto 30 uM measured after 72 hrs by Western blotting analysis; format: functional, cell-based
HCT-116 [9] = test: Inhibition of Wnt/beta-catenin signalling pathway in LiCl stimulated human HCT-116 cells assessed as reduction in […] gene expression upto 30 uM incubated for 24 hrs by RT-PCR analysis; format: cell-based
T-cell [10] = test: Induction of apoptosis in human T-lymphocyte assessed as late apoptotic cells at 30 uM measured after 72 hrs by Annexin-V/propidium iodide staining based flow cytometric analysis (reference value: 14%); format: toxicity
MDCK-P-gp [11] = test: Inhibition of P-gp in MDCK-P-gp cells assessed as effect on intracellular doxorubicin accumulation at 1 to 100 nM incubated for 72 hrs in presence of doxorubicin by […] assay; format: cell-based; conditions: Canis lupus familiaris, dose 1-100 nM
HEK293T [12] = test: Inhibition of Wnt/beta-catenin signalling pathway in LiCl stimulated HEK293T cells transfected with renilla luciferase and TOPFlash reporter gene incubated for 24 hrs by luminescence based analysis; format: cell-based; conditions: Homo sapiens, dose <= 30.0 µM
HT-29 [13] = test: Cytotoxicity against doxorubicin-resistant human HT-29 cell assessed as reduction in cell viability incubated for 72 hrs in presence of doxorubicin by WST-1 assay; format: functional, cell-based; conditions: dose 1-100 nM
SW480 [14] = test: Antiproliferative activity against human SW480 cells assessed as inhibition of cell growth measured after 48 to 72 hrs by XTT assay; format: functional, cell-based
MDCK-P-gp [15] = test: Inhibition of P-gp ATPase activity in MDCK-P-gp cells assessed as reduction in rate of ATP hydrolysis at 10 nM incubated for 3 hrs by spectrophotometric analysis; format: cell-based; conditions: Canis lupus familiaris
MDA-MB-231 = test: Antiproliferative activity against human MDA-MB-231 cells assessed as inhibition of cell growth at 0.1 to 30 uM measured after 72 hrs by propidium iodide staining based cytofluorimetric analysis; format: functional; conditions: dose 0.1-30 µM
HCT-116 [16] = test: Inhibition of Wnt/beta-catenin signalling pathway in LiCl stimulated human HCT-116 cells assessed as reduction in beta-catenin level upto 30 uM incubated for 24 hrs by Western blotting analysis; format: cell-based
[17] = Cytotoxicity against MDCK-P-gp cells assessed as reduction in cell viability incubated for 72 hrs in presence of doxorubicin by WST-1 assay; format: toxicity, cell-based, Canis lupus familiaris; conditions: dog, dose 1-100 nM
MDCK [18] = test: Cytotoxicity against MDCK cells assessed as reduction in cell viability at 1 to 100 nM incubated for 72 hrs in presence of doxorubicin by WST-1 assay; format: toxicity, cell-based, Canis lupus familiaris; conditions: dog, 0.1 µM, dose 1-100 nM
HEK293T [19] = test: Inhibition of Wnt/beta-catenin signalling pathway in LiCl stimulated HEK293T cells transfected with renilla luciferase and FOPFlash reporter gene upto 30 uM incubated for 24 hrs by luminescence based analysis; format: cell-based; conditions: Homo sapiens
BT-549 = test: Antiproliferative activity against human BT-549 cells assessed as inhibition of cell growth at 0.1 to 30 uM measured after 72 hrs by propidium iodide staining based cytofluorimetric analysis; format: functional; conditions: dose 0.1-30 µM
T-cell [20] = test: Induction of apoptosis in human T-lymphocyte assessed as increase in cell death at 30 uM measured after 72 hrs by Annexin-V/propidium iodide staining based flow cytometric analysis relative to control; format: toxicity
HCT-116 [21] = test: Induction of apoptosis in human HCT-116 cells assessed as increase in cleaved PARP level upto 30 uM measured after 72 hrs by Western blotting analysis; format: functional, cell-based
HT-29 [22] = test: Cytotoxicity against doxorubicin-resistant human HT-29 cell assessed as reduction in cell viability […] incubated for 72 hrs in presence of doxorubicin by WST-1 assay; format: functional, cell-based
HT-29 [23] = test: Cytotoxicity against doxorubicin-sensitive human HT-29 cell assessed as reduction in cell viability at 1 to 100 nM incubated for 72 hrs in presence of doxorubicin by WST-1 assay; format: functional, cell-based; conditions: dose 1-100 nM
HCT-116 [24] = test: Inhibition of Wnt/beta-catenin signalling pathway in LiCl stimulated human HCT-116 cells assessed as reduction in c-MYC level upto 30 uM incubated for 24 hrs by Western blotting analysis; format: cell-based
SW-620 [25] = test: Antiproliferative activity against human SW620 cells assessed as inhibition of cell growth measured after 48 to 72 hrs by XTT assay; format: functional, cell-based
[26] = molecular target: T1, ATP-dependent translocase ABCB1 (Homo sapiens, UniProt P08183); test: Inhibition of P-gp ATPase activity in doxorubicin-resistant human HT-29 cell assessed as reduction in rate of ATP hydrolysis at 10 nM incubated for 3 hrs by spectrophotometric analysis; format: cell-based; conditions: 0.01 µM
HCT-116 [27] = test: Inhibition of Wnt/beta-catenin signalling pathway in LiCl stimulated human HCT-116 cells assessed as reduction in Sal4 gene expression upto 30 uM incubated for 24 hrs by RT-PCR analysis; format: cell-based
[28] = molecular target: T1, ATP-dependent translocase ABCB1; test: Inhibition of P-gp in doxorubicin-resistant human HT-29 cell assessed as increase in intracellular doxorubicin accumulation incubated for 72 hrs in presence of doxorubicin by spectrofluorimetric analysis; format: cell-based; conditions: 0.1 µM, dose 100 nM
[29] = molecular target: T1, ATP-dependent translocase ABCB1; test: Inhibition of P-gp in human HT-29 cells assessed as effect on intracellular doxorubicin accumulation at 1 to 100 nM incubated for 72 hrs in presence of doxorubicin by spectrofluorimetric analysis; format: cell-based; conditions: dose 1-100 nM
HCT-116 [30] = test: Antiproliferative activity against human HCT-116 cells assessed as inhibition of cell growth measured after 48 to 72 hrs by MTT assay; format: functional, cell-based

T1 sequence (P08183 whole entry): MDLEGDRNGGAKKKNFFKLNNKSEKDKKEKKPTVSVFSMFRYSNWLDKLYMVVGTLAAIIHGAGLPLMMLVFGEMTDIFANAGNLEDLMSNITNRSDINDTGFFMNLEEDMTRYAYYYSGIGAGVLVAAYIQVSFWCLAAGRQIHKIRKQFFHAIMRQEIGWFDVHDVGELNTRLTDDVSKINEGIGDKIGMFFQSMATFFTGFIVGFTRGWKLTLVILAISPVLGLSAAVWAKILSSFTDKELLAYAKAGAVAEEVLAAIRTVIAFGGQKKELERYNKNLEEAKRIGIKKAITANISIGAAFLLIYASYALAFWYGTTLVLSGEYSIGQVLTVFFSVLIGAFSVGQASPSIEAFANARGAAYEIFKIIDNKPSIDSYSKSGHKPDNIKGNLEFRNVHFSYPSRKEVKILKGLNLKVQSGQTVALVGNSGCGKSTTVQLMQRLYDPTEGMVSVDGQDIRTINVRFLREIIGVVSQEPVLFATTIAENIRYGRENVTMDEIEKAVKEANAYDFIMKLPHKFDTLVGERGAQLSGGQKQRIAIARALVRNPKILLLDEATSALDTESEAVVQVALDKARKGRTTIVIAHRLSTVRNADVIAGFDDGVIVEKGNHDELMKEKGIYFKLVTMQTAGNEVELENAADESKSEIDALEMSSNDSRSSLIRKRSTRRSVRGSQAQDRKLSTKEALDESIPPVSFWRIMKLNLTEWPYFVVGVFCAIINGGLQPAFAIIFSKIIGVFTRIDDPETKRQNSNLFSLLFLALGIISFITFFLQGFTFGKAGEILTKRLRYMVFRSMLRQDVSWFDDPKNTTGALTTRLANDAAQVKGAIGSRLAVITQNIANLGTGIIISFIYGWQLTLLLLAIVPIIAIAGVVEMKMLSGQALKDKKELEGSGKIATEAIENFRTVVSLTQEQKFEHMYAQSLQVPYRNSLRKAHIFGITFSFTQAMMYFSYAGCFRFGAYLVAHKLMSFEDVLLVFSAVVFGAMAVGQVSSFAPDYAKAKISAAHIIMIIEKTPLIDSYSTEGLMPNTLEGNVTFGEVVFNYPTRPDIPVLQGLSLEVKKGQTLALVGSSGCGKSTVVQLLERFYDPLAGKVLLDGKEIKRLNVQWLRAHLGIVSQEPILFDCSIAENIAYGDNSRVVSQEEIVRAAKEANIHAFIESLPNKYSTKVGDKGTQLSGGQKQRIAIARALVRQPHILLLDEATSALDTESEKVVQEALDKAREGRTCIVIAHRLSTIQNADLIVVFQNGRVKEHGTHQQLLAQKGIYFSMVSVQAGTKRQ
Carbonic anhydrase 12, sequence (O43570 whole entry): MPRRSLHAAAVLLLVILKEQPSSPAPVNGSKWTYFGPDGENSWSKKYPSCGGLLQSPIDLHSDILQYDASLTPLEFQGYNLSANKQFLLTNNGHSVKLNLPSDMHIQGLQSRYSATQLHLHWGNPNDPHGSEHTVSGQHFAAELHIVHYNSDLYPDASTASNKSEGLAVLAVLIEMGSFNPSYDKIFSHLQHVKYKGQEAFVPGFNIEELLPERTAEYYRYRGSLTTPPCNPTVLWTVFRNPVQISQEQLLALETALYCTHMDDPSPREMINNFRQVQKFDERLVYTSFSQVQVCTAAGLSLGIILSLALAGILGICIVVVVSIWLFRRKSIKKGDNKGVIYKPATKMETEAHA

## NS(=O)(=O)c1ccc(-n2cc(C(=O)c3ccccc3)c(-c3ccccc3)c2)cc1
Carbonic anhydrase 12
  Ki: 59.4 nM
Carbonic anhydrase 9
  Ki: 38.6 nM

## COc1cc(C(=O)c2cn(-c3ccc(S(N)(=O)=O)cc3)c3ccccc23)cc(OC)c1OC
SW-620 [1]
  IC50: 25800 nM
SW480 [2]
  IC50: 50300 nM
HCT-116 [3]
  IC50: 14000 nM

## NS(=O)(=O)c1ccc(-n2cc(C(=O)c3ccccc3)c3ccccc32)cc1
Carbonic anhydrase 12
  Ki: 52 nM
Carbonic anhydrase 9
  Ki: 31.6 nM

## Nc1ccc(C(=O)c2ccc(-c3ccc(S(N)(=O)=O)cc3)cc2)cc1
NCI/ADR-RES
  EC50: 2100 nM

## COc1cccc2c1C(=O)c1c(O)c3c(c(O)c1C2=O)C[C@@](O)(C(=O)CO)C[C@@H]3O[C@H]1C[C@H](N)[C@H](O)[C@H](C)O1 [DOXORUBICIN]
HT-29 [4]
  Activity: Active
HT-29 [5]
  Activity: inactive
[6]
  Activity: Non-Toxic
MDCK [7]
  Activity: Toxic

## COc1cc(C(=O)c2ccn(-c3ccc(S(N)(=O)=O)cc3)c2)cc(OC)c1OC
Carbonic anhydrase 2
  Ki: 10.2 nM
Carbonic anhydrase 12
  Ki: 11.5 nM
OVCAR-8
  IC50: 1900 nM
Tubulin (Homo sapiens)
  inhibition: inactive
MCF7
  IC50: 3900 nM
NCI/ADR-RES
  IC50: 2200 nM
Carbonic anhydrase 9
  Ki: 44.8 nM

## NS(=O)(=O)c1ccc(-n2ccc(C(=O)c3ccccc3)c2)cc1
Carbonic anhydrase 12
  Ki: 47.1 nM
Carbonic anhydrase 9
  Ki: 66 nM

## COc1cc(C(=O)c2cn(-c3ccc(S(N)(=O)=O)cc3)cc2-c2ccccc2)cc(OC)c1OC
HCT-116 [8]
  Activity: Active
HCT-116 [9]
  inhibition: Active
T-cell [10]
  Activity: 20%
MDCK-P-gp [11]
  inhibition: inactive
HEK293T [12]
  inhibition: Dose-Dependent Effect
HT-29 [13]
  Activity: Dose-Dependent Effect
SW480 [14]
  IC50: 17700 nM
HT-29 [4]
  Activity: >75%
MDCK-P-gp [15]
  inhibition: Active
MDA-MB-231
  Activity: Active
HCT-116 [16]
  inhibition: Active
[17]
  Activity: Dose-Dependent Effect
MDCK [18]
  Activity: Non-Toxic
HEK293T [19]
  inhibition: inactive
BT-549
  Activity: Active
HT-29 [5]
  Activity: >75%
OVCAR-8
  IC50: 1900 nM
[6]
  Activity: > 75%
T-cell [20]
  Activity: 6%
MCF7
  IC50: 1900 nM
HCT-116 [21]
  Activity: Active
HT-29 [22]
  Activity: Active
SW-620 [1]
  IC50: 37300 nM
SW480 [2]
  IC50: 42900 nM
NCI/ADR-RES
  IC50: 2100 nM
HT-29 [23]
  Activity: Active
MDCK [7]
  Activity: > 75%
HCT-116 [24]
  inhibition: Active
SW-620 [25]
  IC50: 23800 nM
[26]
  inhibition (INH): Active
HCT-116 [27]
  inhibition: Active
[28]
  inhibition (INH): Dose-Dependent Effect
[29]
  inhibition (INH): Not Active
HCT-116 [30]
  IC50: 8700 nM
HCT-116 [3]
  IC50: 17000 nM
